The values below come from patent US20240308996A1, “PYRIDOPYRIDINES AND DERIVATIVES THEREOF AS SELECTIVE KINASE INHIBITORS” (University of Sharjah, priority 2023, published 2024).

Structures are written as SMILES.

What is called IC50 is the point on the concentration scale where inhibition reaches its midpoint. In general, TGI refers to the concentration giving total growth inhibition. High values mean lower sensitivity of the cells, low ones greater sensitivity of the cells.

Assay [1] has as its system UACC-257. The assay is described as follows: NCI-60 cell line panel: UACC-257. The class given is cell-based. The note with it: Melanoma; for IC50: Homo sapiens; for TGI: total growth inhibition. How it is done: (§1) It was carried out at the NCI, Bethesda, MD, USA, utilizing their standard protocol.
Assay [2] deals with FMS (Homo sapiens, UniProt P07333). The assay is described as follows: Kinase IC50, FMS.
For assay [3], the system named is NCI-H460. The assay is described as follows: NCI-60 cell line panel: NCI-H460. The note with it: Non-Small Cell Lung Cancer; for IC50: Homo sapiens; for TGI: total growth inhibition. The class given is cell-based. On the procedure: as §1
Assay [4] addresses Flt3 (Homo sapiens, UniProt P36888). The assay can be described thus: Kinase IC50, Flt3.
The target of assay [5] is PDGFRα (Homo sapiens, UniProt P16234). The assay is described as follows: Kinase IC50, PDGFRα.
Assay [6] deals with RXF 393. The assay is described as follows: NCI-60 cell line panel: RXF 393. The class given is cell-based. The note with it: Renal Cancer; for IC50: Homo sapiens; for TGI: total growth inhibition. On the procedure:
as §1

The target in assay [7] is Flt4 (Homo sapiens, UniProt P35916). The assay can be described thus: Kinase IC50, Flt4.
The target in assay [8] is TrkA (Homo sapiens, UniProt P04629). The assay is described as follows: Kinase IC50, TrkA.
Sequence of TrkA (P04629 33-796): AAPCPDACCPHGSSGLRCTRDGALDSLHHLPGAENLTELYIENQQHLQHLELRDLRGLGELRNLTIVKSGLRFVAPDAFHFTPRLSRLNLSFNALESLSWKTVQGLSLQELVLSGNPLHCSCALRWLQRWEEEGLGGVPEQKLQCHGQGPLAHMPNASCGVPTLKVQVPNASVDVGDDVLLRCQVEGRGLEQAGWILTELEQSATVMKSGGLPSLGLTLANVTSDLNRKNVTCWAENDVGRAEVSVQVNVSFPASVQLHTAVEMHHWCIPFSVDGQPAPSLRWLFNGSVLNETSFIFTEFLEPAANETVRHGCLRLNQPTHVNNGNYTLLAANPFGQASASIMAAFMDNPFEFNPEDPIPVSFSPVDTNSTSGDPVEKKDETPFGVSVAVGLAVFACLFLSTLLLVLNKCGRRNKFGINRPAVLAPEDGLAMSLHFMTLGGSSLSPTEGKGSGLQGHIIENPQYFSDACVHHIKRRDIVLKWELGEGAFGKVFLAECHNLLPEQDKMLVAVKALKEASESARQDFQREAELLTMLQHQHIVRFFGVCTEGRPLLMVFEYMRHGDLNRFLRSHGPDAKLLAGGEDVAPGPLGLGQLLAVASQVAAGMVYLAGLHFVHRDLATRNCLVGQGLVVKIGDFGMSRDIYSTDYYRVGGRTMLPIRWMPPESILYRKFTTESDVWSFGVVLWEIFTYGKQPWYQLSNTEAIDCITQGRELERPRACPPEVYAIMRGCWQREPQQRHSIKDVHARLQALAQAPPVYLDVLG

Sequence of FMS (P07333 20-972): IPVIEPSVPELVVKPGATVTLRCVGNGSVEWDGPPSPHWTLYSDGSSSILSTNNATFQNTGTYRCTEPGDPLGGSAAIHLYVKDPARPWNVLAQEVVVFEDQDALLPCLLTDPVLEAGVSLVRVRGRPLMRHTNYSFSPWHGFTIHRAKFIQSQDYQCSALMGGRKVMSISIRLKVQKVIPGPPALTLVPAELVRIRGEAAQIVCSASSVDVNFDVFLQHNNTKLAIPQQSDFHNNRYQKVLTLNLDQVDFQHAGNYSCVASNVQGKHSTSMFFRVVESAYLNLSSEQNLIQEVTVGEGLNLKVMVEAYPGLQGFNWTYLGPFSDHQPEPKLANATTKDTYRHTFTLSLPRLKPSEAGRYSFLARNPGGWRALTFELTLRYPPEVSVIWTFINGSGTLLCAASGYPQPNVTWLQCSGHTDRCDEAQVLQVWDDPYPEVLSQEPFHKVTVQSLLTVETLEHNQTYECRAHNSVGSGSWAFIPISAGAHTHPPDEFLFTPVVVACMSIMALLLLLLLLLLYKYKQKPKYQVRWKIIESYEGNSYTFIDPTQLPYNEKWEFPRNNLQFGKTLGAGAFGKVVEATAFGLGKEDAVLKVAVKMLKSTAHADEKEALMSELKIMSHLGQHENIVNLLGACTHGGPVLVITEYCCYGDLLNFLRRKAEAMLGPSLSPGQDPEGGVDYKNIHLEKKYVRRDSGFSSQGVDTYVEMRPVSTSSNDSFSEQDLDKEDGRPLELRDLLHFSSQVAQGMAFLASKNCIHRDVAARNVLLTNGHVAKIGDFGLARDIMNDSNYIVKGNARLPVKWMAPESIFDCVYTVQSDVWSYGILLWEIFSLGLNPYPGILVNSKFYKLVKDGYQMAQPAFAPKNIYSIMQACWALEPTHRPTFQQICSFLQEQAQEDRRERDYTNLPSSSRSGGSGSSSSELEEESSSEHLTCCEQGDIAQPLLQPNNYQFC
Sequence of PDGFRα (P16234 24-1089): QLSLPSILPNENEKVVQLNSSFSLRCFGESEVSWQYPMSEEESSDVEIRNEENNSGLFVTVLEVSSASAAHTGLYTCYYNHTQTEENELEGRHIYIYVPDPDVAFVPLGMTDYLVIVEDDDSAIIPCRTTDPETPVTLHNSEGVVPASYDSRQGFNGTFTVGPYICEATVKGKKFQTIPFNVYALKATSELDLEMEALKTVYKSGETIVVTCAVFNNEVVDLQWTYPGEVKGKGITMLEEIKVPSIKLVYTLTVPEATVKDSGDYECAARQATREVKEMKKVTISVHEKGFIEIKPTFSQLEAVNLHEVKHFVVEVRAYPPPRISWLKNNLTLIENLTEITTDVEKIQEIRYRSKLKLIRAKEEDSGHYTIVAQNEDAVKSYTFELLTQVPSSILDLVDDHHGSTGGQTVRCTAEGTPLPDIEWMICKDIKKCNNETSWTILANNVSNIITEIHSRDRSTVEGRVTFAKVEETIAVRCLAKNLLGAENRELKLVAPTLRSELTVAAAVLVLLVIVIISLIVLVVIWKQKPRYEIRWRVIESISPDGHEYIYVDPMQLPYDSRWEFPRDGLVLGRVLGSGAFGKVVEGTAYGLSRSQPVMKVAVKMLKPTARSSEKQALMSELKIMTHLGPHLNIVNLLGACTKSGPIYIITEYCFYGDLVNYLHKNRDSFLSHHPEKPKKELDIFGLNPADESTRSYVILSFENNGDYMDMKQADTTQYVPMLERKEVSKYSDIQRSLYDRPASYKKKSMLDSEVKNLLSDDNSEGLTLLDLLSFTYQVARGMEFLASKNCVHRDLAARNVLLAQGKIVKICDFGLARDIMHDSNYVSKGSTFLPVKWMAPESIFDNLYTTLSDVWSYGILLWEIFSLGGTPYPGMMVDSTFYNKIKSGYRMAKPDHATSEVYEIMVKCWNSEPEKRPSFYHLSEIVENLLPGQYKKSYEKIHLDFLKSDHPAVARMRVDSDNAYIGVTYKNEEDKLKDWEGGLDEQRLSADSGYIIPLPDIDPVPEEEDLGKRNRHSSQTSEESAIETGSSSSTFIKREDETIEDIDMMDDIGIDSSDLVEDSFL
Sequence of Flt4 (P35916 25-1363): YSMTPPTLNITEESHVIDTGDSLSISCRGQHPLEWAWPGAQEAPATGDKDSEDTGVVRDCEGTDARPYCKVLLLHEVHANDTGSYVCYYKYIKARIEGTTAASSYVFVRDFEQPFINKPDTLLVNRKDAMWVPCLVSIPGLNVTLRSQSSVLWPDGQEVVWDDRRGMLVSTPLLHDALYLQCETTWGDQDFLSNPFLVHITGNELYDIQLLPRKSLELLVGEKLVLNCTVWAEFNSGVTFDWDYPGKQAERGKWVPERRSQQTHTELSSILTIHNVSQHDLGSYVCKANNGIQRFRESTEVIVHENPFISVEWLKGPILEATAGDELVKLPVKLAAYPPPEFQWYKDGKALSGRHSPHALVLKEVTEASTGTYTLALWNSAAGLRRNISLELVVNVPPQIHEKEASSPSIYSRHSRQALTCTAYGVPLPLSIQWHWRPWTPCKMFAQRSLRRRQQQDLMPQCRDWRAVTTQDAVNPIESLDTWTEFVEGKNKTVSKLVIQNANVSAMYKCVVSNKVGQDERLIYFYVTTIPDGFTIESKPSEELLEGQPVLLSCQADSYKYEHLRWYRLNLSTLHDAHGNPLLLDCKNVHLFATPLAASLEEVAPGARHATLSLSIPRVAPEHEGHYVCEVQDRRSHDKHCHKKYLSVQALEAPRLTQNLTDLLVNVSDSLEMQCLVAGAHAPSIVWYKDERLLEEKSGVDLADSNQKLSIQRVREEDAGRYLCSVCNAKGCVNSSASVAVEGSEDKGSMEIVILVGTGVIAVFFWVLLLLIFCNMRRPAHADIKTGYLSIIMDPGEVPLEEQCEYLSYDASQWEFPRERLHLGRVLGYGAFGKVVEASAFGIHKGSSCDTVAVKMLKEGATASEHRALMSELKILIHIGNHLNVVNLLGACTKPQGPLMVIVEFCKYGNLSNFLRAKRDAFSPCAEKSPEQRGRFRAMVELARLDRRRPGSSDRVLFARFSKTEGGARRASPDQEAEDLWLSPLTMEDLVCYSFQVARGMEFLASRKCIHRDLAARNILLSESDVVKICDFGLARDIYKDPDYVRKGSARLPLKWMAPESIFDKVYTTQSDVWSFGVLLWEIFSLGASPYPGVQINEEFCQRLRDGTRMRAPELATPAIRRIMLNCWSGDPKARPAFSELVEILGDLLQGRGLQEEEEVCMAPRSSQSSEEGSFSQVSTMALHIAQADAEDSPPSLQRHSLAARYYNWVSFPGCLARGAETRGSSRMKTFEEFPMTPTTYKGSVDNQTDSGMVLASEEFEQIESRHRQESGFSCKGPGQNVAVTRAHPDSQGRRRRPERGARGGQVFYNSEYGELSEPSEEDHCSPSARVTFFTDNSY
Sequence of Flt3 (P36888 27-993): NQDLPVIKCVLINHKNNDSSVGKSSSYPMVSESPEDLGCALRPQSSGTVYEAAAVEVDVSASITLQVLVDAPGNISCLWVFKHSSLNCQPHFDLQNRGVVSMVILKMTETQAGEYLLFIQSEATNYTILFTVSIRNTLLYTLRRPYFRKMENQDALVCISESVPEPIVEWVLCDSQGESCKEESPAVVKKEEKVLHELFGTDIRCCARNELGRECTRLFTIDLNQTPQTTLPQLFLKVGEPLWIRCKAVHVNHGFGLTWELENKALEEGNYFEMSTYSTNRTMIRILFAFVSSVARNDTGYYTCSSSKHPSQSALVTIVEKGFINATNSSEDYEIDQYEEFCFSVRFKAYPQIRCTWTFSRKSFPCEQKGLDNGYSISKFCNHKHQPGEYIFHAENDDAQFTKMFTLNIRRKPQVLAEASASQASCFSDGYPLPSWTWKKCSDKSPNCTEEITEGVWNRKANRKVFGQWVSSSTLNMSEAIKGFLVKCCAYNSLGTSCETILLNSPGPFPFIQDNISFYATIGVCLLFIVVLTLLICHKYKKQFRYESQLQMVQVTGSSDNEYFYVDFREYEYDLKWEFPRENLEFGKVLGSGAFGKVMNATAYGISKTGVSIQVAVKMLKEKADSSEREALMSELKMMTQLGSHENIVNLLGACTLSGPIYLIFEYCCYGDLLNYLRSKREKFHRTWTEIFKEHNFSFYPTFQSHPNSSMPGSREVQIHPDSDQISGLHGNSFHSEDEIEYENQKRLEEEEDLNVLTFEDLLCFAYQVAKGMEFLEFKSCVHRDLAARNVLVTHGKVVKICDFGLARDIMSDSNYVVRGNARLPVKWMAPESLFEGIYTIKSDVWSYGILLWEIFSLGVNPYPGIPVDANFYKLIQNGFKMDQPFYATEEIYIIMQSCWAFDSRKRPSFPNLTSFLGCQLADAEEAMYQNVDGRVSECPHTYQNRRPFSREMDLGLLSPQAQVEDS

Take `CNC(=O)c1cc(-c2ccc(NC(=O)Nc3ccc(N4CCN(C)CC4)c(C(F)(F)F)c3)cc2)nc2cccnc12` [Compound 13b, N-Methyl-2-(4-(3-(4-(4-methylpiperazin-1-yl)-3-(trifluoromethyl)phenyl)ureido)phenyl)-1,5-naphthyridine-4-carboxamide]: the IC50 in assay [1] came out at 15.3 µM; in assay [2], 0.0215 ± 0.0002 µM; in assay [3] it was 3.19 µM; in assay [4] it was 0.362 ± 0.0004 µM; in assay [5], 0.9724 ± 0.0013 µM; in assay [6], 3.38 µM. In assay [7], this molecule registered an IC50 of 0.3663 ± 0.0005 µM. For the same molecule, the results for the TGI in assay [1], in assay [3] and in assay [6] were 28.8 µM, 10.2 µM and 15 µM, respectively. Besides, the “potency against FMS kinase compared with sorafenib” value in assay [2] is recorded as “more potent than the known drug sorafenib”. Also, the “potency and selectivity against FMS kinase (IC50 values)” value in assay [2] (against the most sensitive kinases) is “high potency and selectivity against FMS kinase”.
Turning to `CCN1CCN(c2ccc(NC(=O)Nc3ccc(-c4cc(C(=O)NC)c5ncccc5n4)cc3)cc2C(F)(F)F)CC1` [Compound 13c, 2-(4-(3-(4-(4-Ethylpiperazin-1-yl)-3-(trifluoromethyl)phenyl)ureido)phenyl)-N-methyl-1,5-naphthyridine-4-carboxamide], the IC50 in assay [1] is 3.05 µM; in assay [2] it was 0.0739 ± 0.0002 µM; in assay [3], 0.66 µM; in assay [4], 0.4836 ± 0.0007 µM; in assay [5] it was 0.9923 ± 0.0006 µM; in assay [6], 0.49 µM. Also, the IC50 was 0.9451 ± 0.0005 µM in assay [7] and 0.958 µM in assay [8]. Moreover, the concentration for total growth inhibition (TGI) in assay [1] is 5.99 µM; in assay [3] it was 2.93 µM; in assay [6] it was 1.66 µM. For the same molecule, the “potency against FMS kinase compared with sorafenib” value in assay [2] was “more potent than the known drug sorafenib”.
With `CC(C)NC(=O)c1cc(-c2ccc(NC(=O)Nc3ccc(N4CCN(C)CC4)c(C(F)(F)F)c3)cc2)nc2cccnc12` [Compound 13e, N-Isopropyl-2-(4-(3-(4-(4-methylpiperazin-1-yl)-3-(trifluoromethyl)phenyl)ureido)phenyl)-1,5-naphthyridine-4-carboxamide], the IC50 in assay [1] worked out at 0.69 µM; in assay [3], 0.7 µM; in assay [6], 0.51 µM. Further, the TGI in assay [1] was determined as 1.43 µM; in assay [3] it was 1.31 µM; in assay [6], 1.11 µM.
As to `CCN1CCN(c2ccc(NC(=O)Nc3ccc(-c4cc(C(=O)NC(C)C)c5ncccc5n4)cc3)cc2C(F)(F)F)CC1` [Compound 13f, 2-(4-(3-(4-(4-Ethylpiperazin-1-yl)-3-(trifluoromethyl)phenyl)ureido)phenyl)-N-isopropyl-1,5-naphthyridine-4-carboxamide], the IC50 worked out at 3.45 µM in assay [1], 0.62 µM in assay [3] and 0.65 µM in assay [6]. For the same molecule, the TGI was determined as 8.11 µM in assay [1], 1.18 µM in assay [3] and 1.73 µM in assay [6].
